Measured values published in patent US11299496B2, “Ligands for alpha-7 nicotinic acetylcholine receptors and methods of treating neurological and inflammatory conditions” (Northeastern University, priority 2014, dated 2022).

Biological target: T1, human alpha-7 nAChR (Homo sapiens, UniProt P36544)
T1 construct: expressed in transfected cells; host or cells: Xenopus laevis oocytes (cRNA injection)
Assay: Two-electrode voltage clamp of alpha-7 nAChR expressed in Xenopus oocytes (net charge)
Format: cell-based
Details: area under the curve of current vs. time; for Charge Alone: compound alone acting as an allosteric agonist; for Charge +C: compound together with choline or ACh, includes PAM and ago-PAM activity; call rule not given here
Protocol: The human alpha-7 nAChR receptor clone was obtained from Dr. Jon Lindstrom {University of Pennsylvania, Philadelphia, Pa.), aid the RIC-3 clone from Dr. Millet Treinin (Hebrew University, Jerusalem, Israel) for the purpose of co-injection with a7 to improve the level and speed of receptor expression (Halevi et al., 2003). After linearization and purification of cloned cDNA's, RNA, transcripts were prepared rising the appropriate mMessage mMachine kit tiom Ambion (Austin, Tex.).
Expression in X, laeivis Oocytes
Oocytes were obtained from mature (>9 cm) female Xenopus laeivis African frogs (Nasco, Ft. Atkinson, Wis.). Frogs were anesthetized in 0.7 g/L solution of ethyl 3-aminobenzoate methanesulfonate buffered with sodium bicarbonate, and oocytes were surgically removed through an abdominal incision. Harvested oocytes were treated with 1.25 mg/ml collagenase (Worthington Biochemicals, Freehold, N.J.) in calcium-free Barth's solution (88 mM NaCl, 1 mM KCl, 2.38 mM NaHCO3, 0.82 mM MgSO4, 15 mM HEPES, 12 mg/L tetracycline, pH 7.6) for 3-4 hours to remove the follicular layer. Stage-5 oocytes were isolated and injected with 50 nL (5-20 ng) of human alpha-7 and RIC-3 cRNA. Suitable levels of receptor expression were typically achieved 2-6 days after injection of cRNA. For experiments involving the PAM 4BP-TQS/GAT-107, where standard levels of expression result in ion currents too large to be recorded in voltage clamp, experiments were typically conducted 1-3 days after RNA injection.
Two-electrode voltage clamp experiments were conducted using OpusXpress6000A (Molecular Devices, Sunnyvale, Calif.), an integrated system that provides automated impalement and voltage clamp of up to eight oocytes in parallel. Both the current and voltage electrodes were filled with 3 M KCl, and oocytes were clamped at a holding potential of −60 mV. Data were collected at 50 Hz and filtered at 20 Hz. The oocytes were bath-perfused with Ringer's solution (115 mM NaCl, 10 mM HEPES, 2.5 mM KCl, 1.8 mM CaCl2, pH 7.3), and agonist solutions were delivered from a 96-well drug plate using disposable tips. Flow rates were set at 2 mL/min, with each drug or control solution delivered in 12 s durations, followed˜by 181 s washouts with Ringer's unless noted otherwise.
Experimental Protocols and Data Analysis
Responses of human alpha-7 receptors to agonists were measured as both peek current and net charge measured over a 120 s period beginning with the compound application (Papke and Papke, 2002). […] In experiments involving positive allosteric modulators (PAMs), the fast desensitization of alpha-7 was eliminated, allowing peak currents to be used as a valid measurement of the receptor-mediated responses (Wang et al., 2012; Williams et al., 2011).
Oocytes received two control ACh applications prior to receiving any drug in order to establish a steady reference response, and they received one or more control ACh applications at the end of all experiments. For experiments involving drug incubation through bath applications, all responses were normalized to the average of two ACh control responses taken immediately prior to the switch of bath solution, for each cell individually. These normalization procedures had the effect of compensating for differing levels of receptor expression among the multiple oocytes used in each experiment. Each experiment was conducted on at least four oocytes, with mean values and standard errors (S.E.M.) calculated from their normalized responses. […]

T1 sequence (P36544 23-502): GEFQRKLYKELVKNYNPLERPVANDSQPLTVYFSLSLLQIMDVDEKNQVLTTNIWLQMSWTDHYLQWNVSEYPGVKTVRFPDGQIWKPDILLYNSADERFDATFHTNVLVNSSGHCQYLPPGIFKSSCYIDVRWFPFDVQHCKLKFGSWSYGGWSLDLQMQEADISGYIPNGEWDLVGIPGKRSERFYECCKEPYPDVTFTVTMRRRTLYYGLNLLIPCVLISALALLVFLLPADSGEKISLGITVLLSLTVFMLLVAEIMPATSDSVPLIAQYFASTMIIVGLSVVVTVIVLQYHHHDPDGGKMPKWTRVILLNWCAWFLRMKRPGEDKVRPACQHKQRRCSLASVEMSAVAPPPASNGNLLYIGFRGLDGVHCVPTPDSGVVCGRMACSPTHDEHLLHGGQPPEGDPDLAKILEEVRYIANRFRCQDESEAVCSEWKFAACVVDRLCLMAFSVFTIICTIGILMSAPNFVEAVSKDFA

Row | SMILES | Charge Alone | Charge +C
1 | NS(=O)(=O)c1ccc2c(c1)[C@H]1C=CC[C@H]1[C@@H](c1csc3ccccc13)N2 (stereo in doubt) [Compound 39, 4-(benzo[b]thiophen-3-yl)-3a,4,5,9b-tetrahydro-3H-cyclopenta[c]quinoline-8-sulfonamide] | 22 | 145
2 | O=C(O)c1ccc2c(c1)[C@H]1C=CC[C@H]1[C@@H](c1ccc(Cl)cc1Cl)N2 [Compound 29, 4-(2,4-dichlorophenyl)-3a,4,5,9b-tetrahydro-3H-cyclopenta[c]quinoline-8-carboxylic acid] | Inactive | Inactive
3 | CN(C)S(=O)(=O)c1ccc2c(c1)[C@H]1C=CC[C@H]1[C@@H](c1ccc(Br)cc1)N2 (stereo in doubt) [Compound 21, 4-(4-bromophenyl)-N,N-dimethyl-3a,4,5,9b-tetrahydro-3H-cyclopenta[c]quinoline-8-sulfonamide] | Inactive | Inactive
4 | CC(C)(C)CCCc1ccc([C@H]2Nc3ccc(S(N)(=O)=O)cc3[C@H]3C=CC[C@H]32)cc1 (stereo in doubt) [Compound 66, 4-(4-(4,4-dimethylpentyl)phenyl)-3a,4,5,9b-tetrahydro-3H-cyclopenta[c]quinoline-8-sulfonamide] | 330 | 1240
5 | CCCNS(=O)(=O)c1ccc2c(c1)[C@H]1C=CC[C@H]1[C@H](c1ccc(Br)cc1)N2 (stereo in doubt) [Compound 106, 4-(4-bromophenyl)-N-propyl-3a,4,5,9b-tetrahydro-3H-cyclopenta[c]quinoline-8-sulfonamide] | Inactive | Inactive
6 | NS(=O)(=O)c1ccc2c(c1)[C@H]1C=CC[C@H]1[C@@H](c1ccc([N+](=O)[O-])cc1)N2 (stereo in doubt) [Compound 8, 4-(4-nitrophenyl)-3a,4,5,9b-tetrahydro-3H-cyclopenta[c]quinoline-8-sulfonamide] | 43 | 318
7 | O=C(O)c1ccc2c(c1)[C@H]1C=CC[C@H]1[C@@H](c1ccc(Br)cc1)N2 (stereo in doubt) [Compound 40, 4-(4-bromophenyl)-3a,4,5,9b-tetrahydro-3H-cyclopenta[c]quinoline-8-carboxylic acid] | Inactive | Inactive
8 | NS(=O)(=O)c1ccc2c(c1)[C@H]1C=CC[C@H]1[C@@H](c1ccc(N=C=S)cc1)N2 (stereo in doubt) [Compound 26, 4-(4-isothiocyanatophenyl)-3a,4,5,9b-tetrahydro-3H-cyclopenta[c]quinoline-8-sulfonamide] | 0 | 22
9 | O=S(=O)(NC1CCC1)c1ccc2c(c1)[C@H]1C=CC[C@H]1[C@@H](c1ccc(Br)cc1)N2 [Compound 104, 4-(4-bromophenyl)-N-cyclobutyl-3a,4,5,9b-tetrahydro-3H-cyclopenta[c]quinoline-8-sulfonamide] | Inactive | Inactive
10 | NS(=O)(=O)c1ccc2c(c1)[C@H]1C=CC[C@H]1[C@@H](c1ccc(NC(=O)OC34CC5CC(CC(C5)C3)C4)cc1)N2 (stereo in doubt) [Compound 62, adamantan-1-yl (4-(8-sulfamoyl-3a,4,5,9b-tetrahydro-3H-cyclopenta[c]quinolin-4-yl)phenyl)carbamate] | – | 35
11 | NS(=O)(=O)c1ccc2c(c1)[C@H]1C=CC[C@H]1[C@@H](c1ccccn1)N2 (stereo in doubt) [Compound 52, 4-(pyridin-2-yl)-3a,4,5,9b-tetrahydro-3H-cyclopenta[c]quinoline-8-sulfonamide] | – | 4
12 | NS(=O)(=O)c1ccc2c(c1)[C@H]1C=CC[C@H]1[C@@H](c1ccc(CCCBr)cc1)N2 [Compound 71, 4-(4-(3-bromopropyl)phenyl)-3a,4,5,9b-tetrahydro-3H-cyclopenta[c]quinoline-8-sulfonamide] | 1 | 284

Now from value to molecule:

Row | Charge Alone | Charge +C | SMILES
13 | Inactive | Inactive | O=S(=O)(c1ccc2c(c1)[C@H]1C=CC[C@H]1[C@@H](c1ccc(Br)cc1)N2)N1CCOCC1 (stereo in doubt) [Compound 23, 4-((4-(4-bromophenyl)-3a,4,5,9b-tetrahydro-3H-cyclopenta[c]quinolin-8-yl)sulfonyl)morpholine]
14 | Insoluble | Insoluble | N#Cc1ccc([C@H]2Nc3ccc(S(N)(=O)=O)cc3[C@H]3C=CC[C@H]32)s1 [Compound 34, 4-(5-cyanothiophen-2-yl)-3a,4,5,9b-tetrahydro-3H-cyclopenta[c]quinoline-8-sulfonamide]
15 | 61 | 764 | [N-]=[N+]=Nc1ccc([C@H]2Nc3ccc(S(N)(=O)=O)cc3[C@H]3C=CC[C@H]32)cc1 [Compound 48, (3aR,4S,9bS)-4-(4-azidophenyl)-3a,4,5,9b-tetrahydro-3H-cyclopenta[c]quinoline-8-sulfonamide]
16 | Inactive | Inactive | C=C(C)CNS(=O)(=O)c1ccc2c(c1)[C@H]1C=CC[C@H]1[C@@H](c1ccc(Br)cc1)N2 (stereo in doubt) [Compound 108, 4-(4-bromophenyl)-N-(2-methylallyl)-3a,4,5,9b-tetrahydro-3H-cyclopenta[c]quinoline-8-sulfonamide]
17 | – | 85 | NS(=O)(=O)c1ccc2c(c1)[C@H]1C=CC[C@H]1[C@@H](c1ccc(NC(=O)OC3CCCCC3)cc1)N2 (stereo in doubt) [Compound 61, cyclohexyl(4-(8-sulfamoyl-3a,4,5,9b-tetrahydro-3H-cyclopenta[c]quinolin-4-yl)phenyl)carbamate]
18 | Inactive | Inactive | O=S(=O)(c1ccc2c(c1)[C@H]1C=CC[C@H]1[C@@H](c1ccc(Br)cc1)N2)N1CCC1 [Compound 54, 8-(azetidin-1-ylsulfonyl)-4-(4-bromophenyl)-3a,4,5,9b-tetrahydro-3H-cyclopenta[c]quinolone]
19 | 3 | 528 | NS(=O)(=O)c1ccc2c(c1)[C@H]1C=CC[C@H]1[C@@H](c1cc3ccccc3s1)N2 (stereo in doubt) [Compound 41, 4-(benzo[b]thiophen-2-yl)-3a,4,5,9b-tetrahydro-3H-cyclopenta[c]quinoline-8-sulfonamide]
20 | – | 76 | NS(=O)(=O)c1ccc2c(c1)[C@H]1C=CC[C@H]1[C@@H](Cc1ccccc1)N2 (stereo in doubt) [Compound 13, 4-benzyl-3a,4,5,9b-tetrahydro-3H-cyclopenta[c]quinoline-8-sulfonamide]
21 | Inactive | Inactive | O=S(=O)(Nc1ccccc1)c1ccc2c(c1)[C@H]1C=CC[C@H]1[C@@H](c1ccc(Br)cc1)N2 (stereo in doubt) [Compound 103, 4-(4-bromophenyl)-N-phenyl-3a,4,5,9b-tetrahydro-3H-cyclopenta[c]quinoline-8-sulfonamide]
22 | Inactive | Inactive | NS(=O)(=O)c1ccc2c(c1)[C@H]1C=CC[C@H]1CN2 (stereo in doubt) [Compound 33, 3a,4,5,9b-tetrahydro-3H-cyclopenta[c]quinoline-8-sulfonamide]
